Data: patent US9981928B2, “Aryl sulfide derivatives and aryl sulfoxide derivatives as acaricides and insecticides” (BAYER CROPSCIENCE AKTIENGESELLSCHAFT, priority 2013, dated 2018)
Where two headings read alike, the source gives them in different places.

How the values were obtained:
[1] = tested on: greenhouse red spider mite (Tetranychus urticae); experiment: Tetranychus urticae spray test, OP-resistant (TETRUR), bean leaf disks; assay type: in vivo; conditions: bean leaf disks, after 6 days; for pest or weed control at 500 g/ha: Tetranychus urticae, foliar, 144 h, read-out: efficacy in %
Procedure: Tetranychus urticae—Spray Test, OP-Resistant (TETRUR)
Solvent: 78.0 parts by weight of acetone
• 1.5 parts by weight of dimethylformamide Emulsifier: alkylaryl polyglycol ether
To produce a suitable preparation of active compound, 1 part by weight of active compound is dissolved using the stated parts by weight of solvent and made up with water containing an emulsifier concentration of 1000 ppm until the desired concentration is attained. To produce further test concentrations, the preparation is diluted with emulsifier-containing water.
disks of bean leaves (Phaseolus vulgaris) infested with all stages of the greenhouse red spider mite (Tetranychus urticae) are sprayed with an active compound preparation of the desired concentration.
After 6 days, the efficacy in % is determined. 100% means that all the spider mites have been killed; 0% means that none of the spider mites have been killed.

[2] = log P determination by HPLC on reversed-phase columns (C 18), analogously to OECD Guideline 117; assay type: physicochemical; conditions: for logP (HCOOH): LC-MS in the acidic range, pH 2.7, 0.1% aqueous formic acid / acetonitrile; for logP (HCOOH) / logP (neutral): HPLC reversed-phase C 18; for logP (neutral): LC-MS in the neutral range, pH 7.8, 0.001 molar aqueous ammonium hydrogencarbonate / acetonitrile; for chromatographic logP: reversed-phase C18 HPLC column
Procedure: The log P values were determined analogously to OECD Guideline 117 (EC Directive 92/69/EEC) by HPLC (high-performance liquid chromatography) using reversed-phase columns (C 18), by the following methods:
[a] The LC-MS determination in the acidic range was effected at pH 2.7 with 0.1% aqueous formic acid and acetonitrile (contains 0.1% formic acid) as eluents; linear gradient from 10% acetonitrile to 95% acetonitrile. log P^[a] is also referred to as log P(HCOOH). [b] LC-MS determination in the neutral range was effected at pH 7.8 with 0.001 molar aqueous ammonium hydrogencarbonate solution and acetonitrile as eluents; linear gradient from 10% acetonitrile to 95% acetonitrile. log P^[…] is also referred to as log P(neutral).

[3] = acidic range, pH 2.7, 0.1% aqueous formic acid and acetonitrile, read-out: log P[a] / log P(HCOOH)
[4] = neutral range, pH 7.8, 0.001 molar aqueous ammonium hydrogencarbonate and acetonitrile, read-out: log P[b] / log P(neutral)

| Structure (SMILES) | efficacy in % ([1]; application rate 500 g/ha) [%] | logP (HCOOH) [2] | logP (neutral) [2] | efficacy in % ([1]; application rate 100 g/ha) [%] | pest or weed control at 500 g/ha ([1]; application rate 500 g/ha) [%] | chromatographic logP [2, 3] | chromatographic logP [2, 4] |
| --- | --- | --- | --- | --- | --- | --- | --- |
| Cc1ccc(-n2c(=O)n(C)c(=O)n2-c2ccc(C)c([S+]([O-])CC(F)(F)F)c2)cc1[S+]([O-])CC(F)(F)F (centres unmarked) [Example 82] | 90 | 2.67 | 2.61 | – | – | – | – |
| Cc1cc(F)c(-n2c(=O)n(C3CC3)c(=O)n2C(C)C)cc1[S+]([O-])CC(F)(F)F (centres unmarked) [Example 64] | 90 | 2.51 | 2.45 | – | – | – | – |
| Cc1ccc(-n2c(=O)n(C)c(=O)n2C(C)C)cc1SCC(F)(F)F [Example 61] | 90 | 3.33 | 3.27 | – | – | – | – |
| Cc1cc(F)c(-n2c(=O)n(C(C)(C)C)c(=O)n2CC(F)(F)F)cc1SCC(F)(F)F [Example 147] | 100 | 4.34 | 4.28 | – | – | – | – |
| Cc1cc(F)c(N2C(=O)C(=O)N(CC(C)C)C2=S)cc1SCC(F)(F)F [Example 191] | 100 | 4.62 | 4.54 | – | – | – | – |
| C=CCn1c(=O)n(-c2cc(SCC(F)(F)F)c(C)cc2F)c(=O)n1C [Example 125] | 100 | 2.91 | – | – | – | – | – |
| Cc1cc(F)c(N2CCN(C)C2=O)cc1[S+]([O-])CC(F)(F)F (racemic) [Example 199] | 100 | 1.76 | 1.74 | – | – | – | – |
| Cc1ccc(-n2c(=O)n(C3CC3)c(=O)n2Cc2ccccc2)cc1SCC(F)(F)F [Example 90] | 100 | 3.81 | 3.71 | – | – | – | – |
| Cc1cc(C)c(N2C(=O)C(=O)N(CC(F)(F)F)C2=S)cc1SCC(F)(F)F [Example 187] | 90 | 4.21 | – | – | – | – | – |
| Cc1cc(F)c(-n2c(=O)n(C3CCCCC3)c(=O)n2C)cc1SCC(F)(F)F [Example 136] | 90 | 4.17 | 4.13 | – | – | – | – |
| Cc1cc(F)c(N2C(=O)N(C)C(=O)C2C)cc1SCC(F)(F)F (centres unmarked) [Example 212] | 90 | 2.92 | – | – | – | – | – |
| Cc1cc(F)c(N2C(=O)CSC2=NCC(C)(C)C)cc1[S+]([O-])CC(F)(F)F (racemic) [Example 114] | 90 | 3.66 | 3.63 | – | – | – | – |
| Cn1c(=O)n(C2CC2)c(=O)n1-c1cc([S+]([O-])CC(F)(F)F)c(Br)cc1F (centres unmarked) [Example 72] | 90 | 2.24 | 2.18 | – | – | – | – |
| CCn1c(=O)n(C)n(-c2ccc(C)c([S+]([O-])CC(F)(F)F)c2)c1=O (centres unmarked) [Example 89] | 100 | 1.96 | 1.91 | – | – | – | – |
| Cc1cc(F)c(-n2c(=O)n(-c3ccccc3)c(=O)n2C)cc1SCC(F)(F)F [Example 162] | – | 3.42 | 3.27 | 100 | – | – | – |
| C=CCn1c(=O)n(C)c(=O)n1-c1ccc(C)c([S+]([O-])CC(F)(F)F)c1 (centres unmarked) [Example 59] | 100 | 2.03 | 2.00 | – | – | – | – |
| Cc1cc(F)c(N2C(=O)N(C)C(=O)C2C)cc1[S+]([O-])CC(F)(F)F (centres unmarked) [Example 213] | 100 | 1.91 | – | – | – | – | – |
| Cc1cc(F)c(-n2c(=O)n(C3CC3)c(=O)n2C)cc1[S+]([O-])CC(F)(F)F (single isomer, unassigned) [Example 151] | 90 | 1.98 | 1.88 | – | – | – | – |
| Cc1cc(F)c(N2C(=O)N(C)C(C)(C)C2=O)cc1SCC(F)(F)F [Example 18, 3-{2-Fluoro-4-methyl-5-[(2,2,2-trifluoroethyl)sulfanyl]phenyl}-1,5,5-trimethylimidazolidine-2,4-dione] | – | – | – | – | 100 | 2.96 | 2.92 |
| Cc1cc(F)c(N2C(=O)N(C)C(=O)C2(C)C)cc1SCC(F)(F)F [Example 217, 1-[2-Fluoro-4-methyl-5-(2,2,2-trifluoroethylsulfanyl)phenyl]-3,5,5-trimethylimidazolidine-2,4-dione] | – | – | – | – | 90 | 3.11 | – |
| C=CCn1c(=O)n(C)c(=O)n1-c1ccc(C)c(SCC(F)(F)F)c1 [Example 58] | 100 | 3.03 | 2.88 | – | – | – | – |

| Structure (SMILES) | efficacy in % ([1]; application rate 500 g/ha) [%] | logP (HCOOH) [2] | logP (neutral) [2] | efficacy in % ([1]; application rate 100 g/ha) [%] | pest or weed control at 500 g/ha ([1]; application rate 500 g/ha) [%] | chromatographic logP [2, 3] | chromatographic logP [2, 4] |
| --- | --- | --- | --- | --- | --- | --- | --- |
| COCCCn1c(=O)n(C)n(-c2cc(SCC(F)(F)F)c(C)cc2F)c1=O [Example 159] | 100 | 2.96 | 2.95 | – | – | – | – |
| C=CCn1c(=O)n(C2CC2)c(=O)n1-c1ccc(C)c([S+]([O-])CC(F)(F)F)c1 (centres unmarked) [Example 49] | 90 | 2.28 | 2.24 | – | – | – | – |
| Cc1cc(F)c(N2C(=O)OC(C)(C)C2=O)cc1SCC(F)(F)F [Example 111, 3-[2-Fluoro-4-methyl-5-(2,2,2-trifluoroethylsulfanyl)phenyl]-5,5-dimethyloxazolidine-2,4-dione] | – | – | – | – | 90 | 3.35 | – |
| CCn1c(=O)n(C(C)(C)C)c(=O)n1-c1cc([S+]([O-])CC(F)(F)F)c(C)cc1F (centres unmarked) [Example 137] | 90 | 3.02 | 2.96 | – | – | – | – |
| CCC1(CC)C(=O)N(C)N(c2cc(SCC(F)(F)F)c(C)cc2F)C1=O [Example 175] | 100 | 3.41 | 3.40 | – | – | – | – |
| Cc1cc(F)c(N2CCNC2=O)cc1SCC(F)(F)F [Example 9, 1-{2-Fluoro-4-methyl-5-[(2,2,2-trifluoroethyl)sulfanyl]phenyl}imidazolidin-2-one] | – | – | – | – | 90 | 2.36 | 2.31 |
| CCn1c(=O)n(-c2ccc(C)c([S+]([O-])CC(F)(F)F)c2)n(C(C)C)c1=O (centres unmarked) [Example 140] | 90 | 2.56 | 2.54 | – | – | – | – |
| Cc1cc(F)c(N2C(=O)CSC2=NCC(C)(C)C)cc1SCC(F)(F)F [Example 113] | 100 | 4.84 | 4.73 | – | – | – | – |
| CCn1c(=O)n(C2CC2)c(=O)n1-c1cc([S+]([O-])CC(F)(F)F)c(C)cc1F (centres unmarked) [Example 171] | 100 | 2.18 | 2.15 | – | – | – | – |
| Cc1cc(F)c(N2C(=O)C(C)(C)C(=O)N2Cc2ccccc2)cc1SCC(F)(F)F [Example 178] | 100 | 3.80 | 3.76 | – | – | – | – |
| C=CCn1c(=O)n(CC(F)(F)F)n(-c2cc([S+]([O-])CC(F)(F)F)c(C)cc2F)c1=O (centres unmarked) [Example 166] | 90 | 2.72 | 2.89 | – | – | – | – |
| Cc1cc(F)c(N2C(=O)C(=O)N(CC(F)F)C2=O)cc1SCC(F)(F)F [Example 101, 1-(2,2-Difluoroethyl)-3-[2-fluoro-4-methyl-5-[(2,2,2-trifluoroethyl)sulfanyl]phenyl]imidazolidine-2,4,5-trione] | – | – | – | – | 100 | 3.22 | 1.73 |
| Cc1cc(F)c(-n2c(=O)n(C)c(=O)n2C(C)C)cc1SCC(F)(F)F [Example 62] | 90 | 3.29 | 3.23 | – | – | – | – |
| Cn1c(=O)n(C2CC2)c(=O)n1-c1ccc(Cl)c([S+]([O-])CC(F)(F)F)c1 (centres unmarked) [Example 39] | 100 | 2.20 | 2.17 | – | – | – | – |
| Cn1c(=O)n(C2CC2)c(=O)n1-c1ccc(C(F)(F)F)c(SCC(F)(F)F)c1 [Example 53] | 100 | 3.33 | 3.23 | – | – | – | – |
| C=CCn1c(=O)n(-c2ccc(C)c(SCC(F)(F)F)c2)n(-c2ccc(C)c(SCC(F)(F)F)c2)c1=O [Example 79] | – | 4.86 | 4.67 | 90 | – | – | – |
| Cc1cc(F)c(N2C(=O)C(=O)N(C(C)(C)C)C2=S)cc1[S+]([O-])CC(F)(F)F (centres unmarked) [Example 196] | 90 | 3.45 | 3.41 | – | – | – | – |
| Cc1cc(F)c(N2C(=O)C(=O)N(C3CC3)C2=O)cc1[S+]([O-])CC(F)(F)F (centres unmarked) [Example 183] | 100 | 2.31 | – | – | – | – | – |
| Cc1cc(F)c(N2C(=O)CCC2=O)cc1SCC(F)(F)F [Example 19, 1-{2-Fluoro-4-methyl-5-[(2,2,2-trifluoroethyl)sulfanyl]phenyl}pyrrolidine-2,5-dione] | – | – | – | – | 100 | 2.52 | 2.45 |
| Cn1c(=O)n(C2CC2)c(=O)n1-c1ccc(C#N)c([S+]([O-])CC(F)(F)F)c1 (centres unmarked) [Example 43] | 90 | 1.93 | 1.90 | – | – | – | – |
